Data reported in patent publication US20230357266A1, “PHOTOA[…] AND USES THEREOF” (priority 2022, published 2023).

What was measured:
[1] = comparator value for simple phenyl-azide; cited from earlier work
acetylated BSA = target: T1, acetylated BSA (Bos taurus, UniProt P02769); experiment: Light-induced covalent labeling of model protein (slot blot, anti-biotin detection), with or without iridium catalyst Ir-9049; assay type: biochemical; conditions: 50 μM probe, 0.8 μM acetylated BSA, no catalyst, 20 minutes at 365 nm or 455 nm
T1 construct: purchased Promega
T1 sequence (P02769 25-607): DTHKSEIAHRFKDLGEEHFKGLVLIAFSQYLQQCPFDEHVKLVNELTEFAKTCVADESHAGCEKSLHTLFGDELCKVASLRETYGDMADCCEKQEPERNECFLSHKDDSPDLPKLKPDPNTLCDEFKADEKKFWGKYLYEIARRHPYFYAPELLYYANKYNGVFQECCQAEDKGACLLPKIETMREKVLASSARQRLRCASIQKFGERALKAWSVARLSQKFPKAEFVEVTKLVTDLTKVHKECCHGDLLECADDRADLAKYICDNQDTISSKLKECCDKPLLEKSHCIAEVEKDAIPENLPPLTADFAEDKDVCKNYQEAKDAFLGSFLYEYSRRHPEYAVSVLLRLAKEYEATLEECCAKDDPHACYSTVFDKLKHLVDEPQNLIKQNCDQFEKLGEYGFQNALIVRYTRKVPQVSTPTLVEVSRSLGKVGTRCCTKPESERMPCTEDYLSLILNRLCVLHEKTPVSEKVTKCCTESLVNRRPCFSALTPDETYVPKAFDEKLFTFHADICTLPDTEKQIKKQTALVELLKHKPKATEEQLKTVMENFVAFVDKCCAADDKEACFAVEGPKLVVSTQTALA
Method: The capacity of these vinyl-extended aryl-azide-based photoreactive groups to undergo activation by either UV or visible 455 nm light in the presence or absence of a catalyst for subsequent covalent crosslinking with neighboring proteins was further evaluated through labeling efficiency of a model protein (FIGS. 4 and 5). […] Plates remained in the dark (control) or irradiated using Efficiency Aggregators biophotoreactor for 20 minutes at either 365 nm (100% UV=^˜80 W) or 455 nm (100%=^˜80 W or 2% 2 W). To evaluate subsequent covalent labeling efficiencies, reactions were subjected to Zeba column clean-up (ThermoFisher) to remove non-crosslinked vinyl-extended-aryl-azide-biotin probes and then spotted on nitrocellulose membranes using a slot blot apparatus. Membranes were then blocked with 5% BSA (Promega) in TBST for 1 hour at room temperature and subsequently incubated overnight at 4° C. with anti-biotin antibody (Invitrogen) in TBST. The next day membranes were washed 3 times with TBST and then incubated for an hour with a secondary anti-goat-HRP-antibody (Jackson laboratories). Following three washes in TBST, membranes were treated with ECL substrate (Promega) and scanned on the chemiluminescence channel to detect BSA labeled with biotin. […]

| SMILES | λmax [1] | UV versus 455 nm activation efficiencies (quantitated band volumes) (acetylated BSA) |
| --- | --- | --- |
| [N-]=[N+]=Nc1ccccc1 [phenyl-azide] | ~260 nm | – |
| C/C(=C\C(=O)NCCOCCOCCOCCOCCNC(=O)CCCC[C@@H]1SC[C@@H]2NC(=O)N[C@@H]21)c1ccc2cc(N=[N+]=[N-])c(C#N)cc2c1 [Compound 9616] | – | greater 455 nm activation efficiencies |
| C/C(=C\C(=O)NCCOCCOCCOCCOCCNC(=O)CCCC[C@@H]1SC[C@@H]2NC(=O)N[C@@H]21)c1ccc2cc(N=[N+]=[N-])ccc2c1 [Compound 9582] | – | greater 455 nm activation efficiencies |
